Experimental findings from PubChem BioAssay (NCI) are described below.

Test in all cases: DTP human tumour cell line panel, 48 h
Experiment [1] relates to NCI/ADR-RES ovarian.
Experiment [2] relates to SK-MEL-5 melanoma.
Experiment [3] deals with MOLT-4 leukemia.
The test system of experiment [4] is OVCAR-8 ovarian.
Experiment [5] concerns SNB-75 CNS.
Experiment [6] relates to HL-60(TB) leukemia.
Experiment [7] relates to NCI-H226 lung.
The subject of experiment [8] is UACC-62 melanoma.
For experiment [9], the system named is DU-145 prostate.
Experiment [10] deals with HCT-15 colon.

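Tested at 5 concentrations; 48 h exposure; 96-well plates; endpoints linearly interpolated, else capped at highest concentration. The concentration for 50% growth inhibition is given as GI50. TGI is the concentration that stops growth completely.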

With `COC(=O)c1cc(-c2ccccc2)[nH]c1N/N=C/c1c(Cl)cccc1Cl`, the GI50 in experiment [1] was 0.22 µM; in experiment [2], 0.335 µM; in [3], 0.437 µM; in [4], 0.473 µM; in experiment [5], 0.215 µM; in experiment [6] it was 0.289 µM. The concentration for 50% growth inhibition (GI50) in experiment [7] is 0.369 µM; in experiment [8], 0.278 µM; in experiment [9], 0.322 µM; in [10], 0.308 µM. Further, the TGI in experiment [1] was 0.77 µM; in [2], 1.89 µM; in [3], above 100 µM; in experiment [4] it was above 100 µM; in experiment [5] it was 2.43 µM; in experiment [8] it was 9 µM. Also, the results for the TGI in [9] and in experiment [10] were 1.14 µM and above 36 µM, respectively.

In the case of `Nc1ccn(C2CC(F)C(CO)O2)c(=O)n1` (stereo unspecified), the GI50 in experiment [1], in experiment [2], in experiment [3], in experiment [4], in [5] and in [6] was above 100 µM throughout. Besides, the GI50 in experiment [7], in experiment [8], in [9] and in [10] was above 100 µM each time. Moreover, the TGI in experiment [1], in [2], in [3], in experiment [4], in experiment [5] and in [6] was above 100 µM throughout. Besides, the TGI in [7], in experiment [8], in [9] and in experiment [10] was above 100 µM each time.

As to `Cc1cn2c(/C=C3/C(=O)Nc4c3ccc3ccccc43)c(C(F)(F)F)nc2s1`, the GI50 in experiment [1] was 0.456 µM; in experiment [2], 1.03 µM; in [3], 2.7 µM; in experiment [4], 4.65 µM; in experiment [5], 0.582 µM; in experiment [6], 0.54 µM. The GI50 is 17.9 µM in experiment [7], 0.627 µM in [8], 1.67 µM in experiment [9] and 0.618 µM in experiment [10]. Also, the TGI in [1] was above 100 µM; in [2], above 100 µM; in experiment [3] it was above 100 µM; in [4], above 100 µM; in experiment [5] it was above 100 µM; in experiment [6] it was 32.4 µM. Besides, the TGI in [7], in experiment [8], in [9] and in experiment [10] was above 100 µM in each case.

Turning to `NC(=N\N=C/c1ccc(O)cc1)/C(N)=N\N=C/c1ccc(O)cc1`, the GI50 in [1] was above 100 µM; in [2] it was 3.06 µM; in experiment [3], 0.623 µM; in experiment [4], 51.4 µM; in experiment [5], 17.3 µM; in experiment [6] it was 0.251 µM. Moreover, the GI50 in [7] was above 100 µM; in [8], 2.22 µM; in experiment [9] it was 20.2 µM. Also, the concentration for total growth inhibition (TGI) in experiment [1] was above 100 µM; in [2] it was 73.1 µM; in [3], above 100 µM; in experiment [4], above 100 µM; in [5], 43.3 µM; in experiment [7] it was above 100 µM. Also, the concentration for total growth inhibition (TGI) is above 52 µM in [8], above 100 µM in experiment [9] and above 100 µM in experiment [10].

With `CCCCNNC(=O)c1ccc(Br)cc1`, the GI50 in experiment [1] was 1.03 µM; in [2], 1.94 µM; in experiment [3], 2.51 µM; in [4] it was 1.5 µM; in experiment [5], 1.83 µM; in experiment [6], 2.24 µM. In addition, the GI50 in experiment [7] is 9.86 µM; in [8] it was 1.3 µM; in experiment [9], 2.6 µM; in [10], 6.87 µM. Further, the total growth inhibition concentration (TGI) in [1] is above 37.8 µM; in experiment [2], 7.77 µM; in experiment [3], above 50 µM; in experiment [4], above 50 µM; in experiment [5], above 50 µM; in [6], above 50 µM. For the same molecule, the total growth inhibition concentration (TGI) in experiment [7] was above 50 µM; in [8], 7.51 µM; in [9] it was above 50 µM; in experiment [10], above 50 µM.

For the molecule `[2H]C([2H])([2H])NC(=O)c1nnc(NC(=O)C2CC2)cc1Nc1cccc(-c2ncn(C)n2)c1OC`, the GI50 in experiment [1] is 51.3 µM; in [2], 50.2 µM; in experiment [3], 0.934 µM; in experiment [4], 27.4 µM; in experiment [5], 15 µM; in [6], 14 µM. Moreover, the GI50 in experiment [7] was above 100 µM; in experiment [8], 91.6 µM; in [9] it was 14.9 µM; in experiment [10] it was 15.5 µM. The concentration for total growth inhibition (TGI) was above 100 µM in [1]; above 100 µM in [2]; above 100 µM in [3]; above 100 µM in [4]; above 100 µM in experiment [5]; 82.6 µM in experiment [6]. Also, the total growth inhibition concentration (TGI) in experiment [7], in [8], in [9] and in [10] was above 100 µM throughout.

As a reminder, the GI50 is the concentration at which growth is held to half of that of the control. The term TGI denotes the concentration giving total growth inhibition. Read a low TGI as greater sensitivity of the cells.
